Results reported in patent publication US20240209019A1, “COMPOUNDS AND METHODS FOR TREATING HYPERKALEMIA” (ARDELYX, INC., priority 2019, published 2024).

Molecular target: HSD2 (Homo sapiens (Human), UniProt P80365)
Assay: HSD2 activity: cortisol conversion in human descending colon organoid monolayer cultures (Example 112)
Settings: for pIC50: human descending colon epithelial cultures on transwells, 30 minute pre-incubation, then 40 nM cortisol for four hours, cortisol HTRF assay
Experimental: Human descending colon epithelial stem cells were cultured as 3D organoids in accordance with Sato et al. Gastroenterology. […] Cultures were differentiated using SBM containing ENRA and 30 nM aldosterone on day 3, and cultures were used for assay on day 6 or 7. Compounds were diluted in DMSO and serial dilutions prepared by titrating in DMSO. Compounds were then diluted into DMEM/F12. Transwell plates containing descending colon cultures were washed twice with DMEM/F12 and compound was added to the apical compartment. Cells were incubated with test compound for 30 minutes at 37° C., 5% CO2 to equilibrate across the cell membrane. A second compound plate was prepared in which the serially diluted compounds in DMSO were diluted into DMEM/F12 containing 40 nM cortisol. Following the 30 minute pre-incubation step, the apical media was aspirated and compounds diluted in DMEM/F12 with 40 nM cortisol were added to the apical side of the transwell. The plate was then incubated for four hours at 37° C., 5% CO2. Cortisol levels were measured using a cortisol HTRF assay kit as described by the manufacturer (Cisbio). Concentration-response curves were then plotted and IC50 (and pIC50) values were determined using least squares non-linear regression.
Inhibition of HSD2 activity as measured by the inhibition of the conversion of cortisone to cortisol.

HSD2, sequence (P80365 whole entry): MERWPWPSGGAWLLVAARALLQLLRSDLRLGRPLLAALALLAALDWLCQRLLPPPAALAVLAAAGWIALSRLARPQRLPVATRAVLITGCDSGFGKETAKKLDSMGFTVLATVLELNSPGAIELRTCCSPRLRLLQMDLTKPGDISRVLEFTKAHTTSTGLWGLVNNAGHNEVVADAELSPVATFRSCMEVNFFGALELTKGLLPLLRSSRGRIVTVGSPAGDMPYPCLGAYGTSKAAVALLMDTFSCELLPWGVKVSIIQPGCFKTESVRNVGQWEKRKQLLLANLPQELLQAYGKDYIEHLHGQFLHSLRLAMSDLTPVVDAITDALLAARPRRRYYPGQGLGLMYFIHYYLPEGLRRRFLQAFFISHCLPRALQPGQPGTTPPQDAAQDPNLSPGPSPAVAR

Compound	pIC50	IC50
2-(3-((1-PEG5K-1H-1,2,3-triazol-4-yl)methoxy)-4-nitrobenzyl) 9-((5-methyl-2-oxo-1,3-dioxol-4-yl)methyl) (2S,4aS,6aS,6bR,8aR,9S,10S,12aS,12bR,14bR)-10-((2,5,8,11-tetraoxatetradecan-14-oyl)oxy)-2,4a,6a,6b,9,12a-hexamethyl-13-oxo-1,2,3,4,4a,5,6,6a,6b,7,8,8a,9,10,11,12,12a,12b,13,14b-icosahydropicene-2,9-dicarboxylate [Compound 605-2]	6.9	–
CSCC(=O)O[C@H]1CC[C@@]2(C)[C@@H](CC[C@]3(C)[C@@H]2C(=O)C=C2[C@@H]4C[C@@](C)(C(=O)O)CC[C@]4(C)CC[C@]23C)[C@]1(C)C(=O)O [(2S,4aS,6aS,6bR,8aR,9S,10S,12aS,12bR,14bR)-2,4a,6a,6b,9,12a-hexamethyl-10-{[2-(methylsulfanyl)acetyl]oxy}-13-oxo-1,2,3,4,4a,5,6,6a,6b,7,8,8a,9,10,11,12,12a,12b,13,14b-icosahydropicene-2,9-dicarboxylic acid]	5.4	–
CC(=O)O[C@H]1CC[C@@]2(C)[C@@H](CC[C@]3(C)[C@@H]2C(=O)C=C2[C@@H]4C[C@@](C)(C(=O)O)CC[C@]4(C)CC[C@]23C)[C@]1(C)C(=O)O [(2S,4aS,6aS,6bR,8aR,9S,10S,12aS,12bR,14bR)-10-(acetyloxy)-2,4a,6a,6b,9,12a-hexamethyl-13-oxo-1,2,3,4,4a,5,6,6a,6b,7,8,8a,9,10,11,12,12a,12b,13,14b-icosahydropicene-2,9-dicarboxylic acid]	5.9	–
C[C@]1(C(=O)O)CC[C@]2(C)CC[C@]3(C)C(=CC(=O)[C@@H]4[C@@]5(C)CC[C@H](OC(=O)c6ccccc6)[C@@](C)(C(=O)O)[C@@H]5CC[C@]43C)[C@@H]2C1 [(2S,4aS,6aS,6bR,8aR,9S,10S,12aS,12bR,14bR)-10-(benzoyloxy)-2,4a,6a,6b,9,12a-hexamethyl-13-oxo-1,2,3,4,4a,5,6,6a,6b,7,8,8a,9,10,11,12,12a,12b,13,14b-icosahydropicene-2,9-dicarboxylic acid]	6.6	–
C[C@]1(C(=O)O)CC[C@]2(C)CC[C@]3(C)C(=CC(=O)[C@@H]4[C@@]5(C)CC[C@H](OC(=O)C6CC6)[C@@](C)(C(=O)O)[C@@H]5CC[C@]43C)[C@@H]2C1 [(2S,4aS,6aS,6bR,8aR,9S,10S,12aS,12bR,14bR)-10-(cyclopropanecarbonyloxy)-2,4a,6a,6b,9,12a-hexamethyl-13-oxo-1,2,3,4,4a,5,6,6a,6b,7,8,8a,9,10,11,12,12a,12b,13,14b-icosahydropicene-2,9-dicarboxylic acid]	5.8	–
COCO[C@H]1CC[C@@]2(C)[C@@H](CC[C@]3(C)[C@@H]2C(=O)C=C2[C@@H]4C[C@@](C)(C(=O)O)CC[C@]4(C)CC[C@]23C)[C@]1(C)C(=O)O [(2S,4aS,6aS,6bR,8aR,9S,10S,12aS,12bR,14bR)-10-(methoxymethoxy)-2,4a,6a,6b,9,12a-hexamethyl-13-oxo-1,2,3,4,4a,5,6,6a,6b,7,8,8a,9,10,11,12,12a,12b,13,14b-icosahydropicene-2,9-dicarboxylic acid]	5.1	–
CCOC(=O)c1cnn([C@H]2CC[C@@]3(C)[C@@H](CC[C@]4(C)[C@@H]3C(=O)C=C3[C@@H]5C[C@@](C)(C(=O)O)CC[C@]5(C)CC[C@]34C)[C@]2(C)C(=O)O)c1OC [(2S,4aS,6aS,6bR,8aR,9S,10S,12aS,12bR,14bR)-10-[4-(ethoxycarbonyl)-5-methoxy-1H-pyrazol-1-yl]-2,4a,6a,6b,9,12a-hexamethyl-13-oxo-1,2,3,4,4a,5,6,6a,6b,7,8,8a,9,10,11,12,12a,12b,13,14b-icosahydropicene-2,9-dicarboxylic acid]	5.6	–
C[C@]1(C(=O)O)CC[C@]2(C)CC[C@]3(C)C(=CC(=O)[C@@H]4[C@@]5(C)CC[C@H](OC(=O)CO)[C@@](C)(C(=O)O)[C@@H]5CC[C@]43C)[C@@H]2C1 [(2S,4aS,6aS,6bR,8aR,9S,10S,12aS,12bR,14bR)-10-[(2-hydroxyacetyl)oxy]-2,4a,6a,6b,9,12a-hexamethyl-13-oxo-1,2,3,4,4a,5,6,6a,6b,7,8,8a,9,10,11,12,12a,12b,13,14b-icosahydropicene-2,9-dicarboxylic acid]	5.9	–
CC1(C)[C@@H](C(=O)O)CC[C@]2(C)[C@H]3C(=O)C=C4[C@@H]5C[C@@](C)(C(=O)O)CC[C@]5(C)CC[C@@]4(C)[C@]3(C)CC[C@@H]12 [(2S,4aS,6aS,6bR,8aS,10S,12aS,12bR,14bR)-2,4a,6a,6b,9,9,12a-heptamethyl-13-oxo-1,2,3,4,4a,5,6,6a,6b,7,8,8a,9,10,11,12,12a,12b,13,14b-icosahydropicene-2,10-dicarboxylic acid]	5.5	–
CC1(C)[C@@H](OCC(=O)O)CC[C@]2(C)[C@H]3C(=O)C=C4[C@@H]5C[C@@](C)(C(=O)O)CC[C@]5(C)CC[C@@]4(C)[C@]3(C)CC[C@@H]12 [Compound 78-2, (2S,4aS,6aS,6bR,8aR,10S,12aS,12bR,14bR)-10-(Carboxymethoxy)-2,4a,6a,6b,9,9,12a-heptamethyl-13-oxo-1,2,3,4,4a,5,6,6a,6b,7,8,8a,9,10,11,12,12a,12b,13,14b-icosahydropicene-2-carboxylic acid]	5.4	–
Cc1oc(=O)oc1COC(=O)[C@H]1CC[C@]2(C)[C@H]3C(=O)C=C4[C@@H]5C[C@@](C)(C(=O)O)CC[C@]5(C)CC[C@@]4(C)[C@]3(C)CC[C@H]2C1(C)C [Compound 176-2, (2S,4aS,6aS,6bR,8aS,10S,12aS,12bR,14bR)-2,4a,6a,6b,9,9,12a-Heptamethyl-10-(((5-methyl-2-oxo-1,3-dioxol-4-yl)methoxy)carbonyl)-13-oxo-1,2,3,4,4a,5,6,6a,6b,7,8,8a,9,10,11,12,12a,12b,13,14b-icosahydropicene-2-carboxylic acid]	6.3	–
CC1OC(=O)OC1COC(=O)[C@H]1CC[C@]2(C)[C@H]3C(=O)C=C4[C@@H]5C[C@@](C)(C(=O)O)CC[C@]5(C)CC[C@@]4(C)[C@]3(C)CC[C@H]2C1(C)C (stereo partly drawn) [Compound 178-1, (2S,4aS,6aS,6bR,8aS,10S,12aS,12bR,14bR)-2,4a,6a,6b,9,9,12a-Heptamethyl-10-(((5-methyl-2-oxo-1,3-dioxolan-4-yl)methoxy)carbonyl)-13-oxo-1,2,3,4,4a,5,6,6a,6b,7,8,8a,9,10,11,12,12a,12b,13,14b-icosahydropicene-2-carboxylic acid]	6.3	–
COCCOCCOCCOCCC(=O)O[C@H]1CC[C@@]2(C)[C@@H](CC[C@]3(C)[C@@H]2C(=O)C=C2[C@@H]4C[C@@](C)(C(=O)O)CC[C@]4(C)CC[C@]23C)[C@]1(C)C(=O)O [Compound 190-3, (2S,4aS,6aS,6bR,8aR,9S,10S,12aS,12bR,14bR)-10-((2,5,8,11-tetraoxatetradecan-14-oyl)oxy)-2,4a,6a,6b,9,12a-hexamethyl-13-oxo-1,2,3,4,4a,5,6,6a,6b,7,8,8a,9,10,11,12,12a,12b,13,14b-icosahydropicene-2,9-dicarboxylic acid]	–	> 10 µM
CSCC(=O)O[C@H]1CC[C@@]2(C)[C@@H](CC[C@]3(C)[C@@H]2C(=O)C=C2[C@@H]4C[C@@](C)(C(=O)O)CC[C@]4(C)CC[C@]23C)[C@]1(C)C(=O)OCc1oc(=O)oc1C [Compound 194-10, (2S,4aS,6aS,6bR,8aR,9S,10S,12aS,12bR,14bR)-2,4a,6a,6b,9,12a-Hexamethyl-9-(((5-methyl-2-oxo-1,3-dioxol-4-yl)methoxy)carbonyl)-10-(2-(methylthio)acetoxy)-13-oxo-1,2,3,4,4a,5,6,6a,6b,7,8,8a,9,10,11,12,12a,12b,13,14b-icosahydropicene-2-carboxylic acid]	8	–
Cc1oc(=O)oc1COC(=O)[C@]1(C)[C@@H](OC(=O)CS(C)(=O)=O)CC[C@@]2(C)[C@H]1CC[C@]1(C)[C@@H]2C(=O)C=C2[C@@H]3C[C@@](C)(C(=O)O)CC[C@]3(C)CC[C@]21C [Compound 195-2, (2S,4aS,6aS,6bR,8aR,9S,10S,12aS,12bR,14bR)-2,4a,6a,6b,9,12a-Hexamethyl-9-(((5-methyl-2-oxo-1,3-dioxol-4-yl)methoxy)carbonyl)-10-(2-(methylsulfonyl)acetoxy)-13-oxo-1,2,3,4,4a,5,6,6a,6b,7,8,8a,9,10,11,12,12a,12b,13,14b-icosahydropicene-2-carboxylic acid]	6.3	–
Cc1oc(=O)oc1COC(=O)[C@]1(C)[C@@H](OC(=O)c2ccccc2)CC[C@@]2(C)[C@H]1CC[C@]1(C)[C@@H]2C(=O)C=C2[C@@H]3C[C@@](C)(C(=O)O)CC[C@]3(C)CC[C@]21C [Compound 197-2, (2S,4aS,6aS,6bR,8aR,9S,10S,12aS,12bR,14bR)-10-(Benzoyloxy)-2,4a,6a,6b,9,12a-hexamethyl-9-(((5-methyl-2-oxo-1,3-dioxol-4-yl)methoxy)carbonyl)-13-oxo-1,2,3,4,4a,5,6,6a,6b,7,8,8a,9,10,11,12,12a,12b,13,14b-icosahydropicene-2-carboxylic acid]	7.9	–
Cc1oc(=O)oc1COC(=O)[C@]1(C)[C@@H](OC(=O)C2CC2)CC[C@@]2(C)[C@H]1CC[C@]1(C)[C@@H]2C(=O)C=C2[C@@H]3C[C@@](C)(C(=O)O)CC[C@]3(C)CC[C@]21C [Compound 198-2, (2S,4aS,6aS,6bR,8aR,9S,10S,12aS,12bR,14bR)-10-((Cyclopropanecarbonyl)oxy)-2,4a,6a,6b,9,12a-hexamethyl-9-(((5-methyl-2-oxo-1,3-dioxol-4-yl)methoxy)carbonyl)-13-oxo-1,2,3,4,4a,5,6,6a,6b,7,8,8a,9,10,11,12,12a,12b,13,14b-icosahydropicene-2-carboxylic acid]	7.7	–
COCO[C@H]1CC[C@@]2(C)[C@@H](CC[C@]3(C)[C@@H]2C(=O)C=C2[C@@H]4C[C@@](C)(C(=O)O)CC[C@]4(C)CC[C@]23C)[C@]1(C)C(=O)OCc1oc(=O)oc1C [Compound 205-2, (2S,4aS,6aS,6bR,8aR,9S,10S,12aS,12bR,14bR)-10-(Methoxymethoxy)-2,4a,6a,6b,9,12a-hexamethyl-9-(((5-methyl-2-oxo-1,3-dioxol-4-yl)methoxy)carbonyl)-13-oxo-1,2,3,4,4a,5,6,6a,6b,7,8,8a,9,10,11,12,12a,12b,13,14b-icosahydropicene-2-carboxylic acid]	6.4	–
